The record followed here is patent US20030045557A1, “Thiadiazoles and oxadiazoles and their use as phosphodiesterase-7 inhibitors” (priority 2000, published 2003).

Where a name gives a salt, the structure may show the parent alone.

The term IC50 denotes the concentration that inhibits the measured activity by half.

This assay addresses T1, PDE7A1 (Homo sapiens, UniProt Q13946).
T1 construct: made in house; host or cells: Sf21 insect cells (baculovirus expression system)
Put plainly: In vitro inhibition of phosphodiesterase 7 (enzymatic activity, cAMP substrate 50 nM). Format: biochemical. The note with it: PDE7A1 expressed in Sf 21 insect cells; cAMP 50 nM; reaction 10 minutes; read-out: IC50 (PDE7). Here is the method:
The capacity of the compounds of the invention to inhibit cyclic nucleotide phosphodiesterases was evaluated by measuring their IC50 (concentration necessary to inhibit the enzymatic activity by 50%).
PDE3A3, PDE4D3, and PDE7A1 were cloned and expressed in insect cells Sf 21 using the baculovirus expression system. The source of PDE103 and of PDE503 were human cell lines (respectively TPH1 human monocytes and MCF7 human breast adenocarcinoma). The various types of phosphodiesterases were obtained partially purified on an anion exchange column (Mono Q) according to a method adapted from Lavan B. E., Lakey T., Houslay M.D., Biochemical Pharmacology, 1989;38(22):4123-4136.
Measurement of the enzymatic activity for the various types of PDE was then made according to a method adapted from Thompson W. J. et al., Advances in Cyclic Nucleotide Research, ed. G. Brooker et al. New York: Raven Press, 1979;10:69-92.
The substrate used was cGMP for PDE1 and PDE5 and cAMP for PDE3, PDE4, and PDE7. The substrate concentration was 0.2 μM for PDE1, PDE3, and PDE5, 0.25 μM for PDE4, and 50 nM for PDE7.
The enzymatic reaction was stopped after 1 hour for PDE1, PDE3, and PDE5 and 10 minutes for PDE4 and PDE7.

T1 sequence (Q13946 whole entry, species assumed): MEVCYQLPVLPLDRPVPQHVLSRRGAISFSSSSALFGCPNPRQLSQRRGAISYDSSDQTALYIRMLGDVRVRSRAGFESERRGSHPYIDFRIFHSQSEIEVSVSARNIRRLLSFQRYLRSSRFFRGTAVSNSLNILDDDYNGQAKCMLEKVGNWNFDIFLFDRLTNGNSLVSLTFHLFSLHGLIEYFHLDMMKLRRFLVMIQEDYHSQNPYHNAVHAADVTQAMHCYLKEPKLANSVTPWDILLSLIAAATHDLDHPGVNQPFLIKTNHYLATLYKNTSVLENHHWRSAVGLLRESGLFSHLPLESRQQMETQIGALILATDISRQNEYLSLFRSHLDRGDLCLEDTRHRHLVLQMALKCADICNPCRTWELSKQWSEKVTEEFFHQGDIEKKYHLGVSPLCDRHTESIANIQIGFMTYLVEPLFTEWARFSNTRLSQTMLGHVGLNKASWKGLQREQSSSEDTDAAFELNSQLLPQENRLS

As to `Cn1nc(-c2cccc(Cl)c2)s/c1=N\C1CCCCC1` [Example I13, [5-(3-Chloro-phenyl)-3-methyl-3H-[1,3,4]thiadiazol-2-ylidene]-cyclohexyl-amine], the IC50 turned out to be 700 nM.

`Cn1nc(-c2cccnc2)s/c1=N\C1CCCCC1` [Example I38, Cyclohexyl-(3-methyl-5-pyridin-3-yl-3H-[1,3,4]thiadiazol-2-ylidene)-amine]: the IC50 was 340 nM. Turning to `Cn1nc(-c2ccc(O)c(O)c2)s/c1=N\C1CCCCC1` [Example I22, 4-(5-Cyclohexylimino-4-methyl-4,5-dihydro-[1,3,4]thiadiazol-2-yl)-benzene-1,2-diol; compound with trifluoro methanesulfonic acid], the IC50 was 1000 nM.

For the molecule `Cn1nc(-c2ccc(S(N)(=O)=O)cc2)s/c1=N\C1CCCCC1` [Example I30, 4-(5-Cyclohexylimino-4-methyl-4,5-dihydro-[1,3,4]thiadiazol-2-yl)-benzenesulfonamide], the IC50 amounted to 140 nM. Take `Cn1nc(-c2cnccn2)s/c1=N\C1CCCCC1` [Example I25, Cyclohexyl-(3-methyl-5-pyrazin-2-yl-3H-[1,3,4]thiadiazol-2-ylidene)-amine]: the IC50 is 470 nM. For `Cn1nc(-c2ccc(C(=O)Nc3cccc4cccnc34)cc2)s/c1=N\C1CCCCC1` [I37,5, 4-(5-Cyclohexylimino-4-methyl-4,5-dihydro[1,3,4]thiadiazol-2-yl)-N-quinolin-8-yl-benzamide] the value was 93 nM; for `COc1cc(-c2nn(C)/c(=N/C3CCCCC3)s2)ccc1O` [Example I27, 4-(5-Cyclohexylimino-4-methyl-4,5-dihydro-[1,3,4]thiadiazol-2-yl)-2-methoxy-phenol], 460 nM; for `Cn1nc(-c2ccc(S(C)(=O)=O)cc2)s/c1=N\C1CCCCC1` [Example I15, Cyclohexyl-[5-(4-methanesulfonyl-phenyl)-3-methyl-3H-[1,3,4]thiadiazol-2-ylidene]-amine], 140 nM. For `COc1cc(-c2nn(C)/c(=N/C3CCCCC3)s2)cc(OC)c1OC` [Example I41, Cyclohexyl-[3-methyl-5-(3,4,5-trimethoxy-phenyl)-3H-[1,3,4]thiadiazol-2-ylidene]-amine] the value was 1300 nM. With `Cn1nc(-c2ccc(Cl)c(S(N)(=O)=O)c2)s/c1=N\C1CCCCC1` [Example I19, 2-Chloro-5-(5-cyclohexylimino-4-methyl-4,5-dihydro-[1,3,4]thiadiazol-2-yl)-benzenesulfonamide], the IC50 was 70 nM. To `COc1cc(-c2nn(C)/c(=N/C3CCCCC3)s2)cc(OC)c1O` [Example I23, 4-(5-Cyclohexylimino-4-methyl-4,5-dihydro-[1,3,4]thiadiazol-2-yl)-2,6-dimethoxy-phenol] belongs 850 nM. For `Cn1nc(-c2ccc(C(=O)Nc3nn[nH]n3)cc2)s/c1=N\C1CCCCC1` [I37,4, 4-(5-Cyclohexylimino-4-methyl-4,5-dihydro-[1,3,4]thiadiazol-2-yl)-N-(2H-tetrazol-5-yl)-benzamide hydrochloride salt] the value was 150 nM; for `COC(=O)c1ccc(-c2nn(C)/c(=N/C3CCCCC3)s2)cc1` [Example I37, 4-(5-Cyclohexylimino-4-methyl-4,5-dihydro-[1,3,4]thiadiazol-2-yl)-benzoic acid methyl ester], 230 nM. To `COc1cc(-c2nn(C)/c(=N/C3CCCCC3)s2)cc(O)c1OC` [I18,4, 5-(5-Cyclohexylimino-4-methyl-4,5-dihydro[1,3,4]thiadiazol-2-yl)-2,3-dimethoxy-phenol;compound with trifluoro-methanesulfonic Acid] belongs 92 nM; to `Cn1nc(-c2ccc(O)cc2)s/c1=N\C1CCCCC1` [Example I33, 4-(5-Cyclohexylimino-4-methyl-4,5-dihydro-[1,3,4]thiadiazol-2-yl)-phenol; compound with 1,1,1-trifluoro-methanesulfonic acid], 240 nM. For `CCNC(=O)c1ccc(-c2nn(C)/c(=N/C3CCCCC3)s2)cc1` [I37,8, 4-(5-Cyclohexylimino-4-methyl-4,5-dihydro[1,3,4]thiadiazol-2-yl)-N-ethyl-benzamide], the IC50 came out at 64 nM. For `Cn1nc(-c2cc(Cl)cc(Cl)c2)s/c1=N\C1CCCCC1` [I17,1, Cyclohexyl-[5-(3,5-dichloro-phenyl)-3-methyl-3H-[1,3,4]thiadiazol-2-ylidene]-amine] the value was 1300 nM. For `Cn1nc(-c2ccncc2)s/c1=N\C1CCCCC1` [Example I12, Cyclohexyl-(3-methyl-5-pyridin-4-yl-3H-[1,3,4]thiadiazol-2-ylidene)-amine] the value was 290 nM; for `Cn1nc(-c2ccc(C(F)(F)F)cc2)s/c1=N\C1CCCCC1` [Example I11, Cyclohexyl-[3-methyl-5-(4-trifluoromethyl-phenyl)-3H-[1,3,4]thiadiazol-2-ylidene]-amine], 980 nM. In the case of `Cn1nc(-c2ccc(C(N)=O)cc2)s/c1=N\C1CCCCC1` [I37,3, 4-(5-Cyclohexylimino-4-methyl-4,5-dihydro-[1,3,4]thiadiazol-2-yl)-benzamide], the IC50 stood at 62 nM. To `CC(C)NC(=O)c1ccc(-c2nn(C)/c(=N/C3CCCCC3)s2)cc1` [I37,7, 4-(5-Cyclohexylimino-4-methyl-4,5-dihydro[1,3,4]thiadiazol-2-yl)-N-isopropyl-benzamide] belongs 86 nM. For `Cn1nc(-c2ccc(Cl)cc2)s/c1=N\[C@@H]1CCCC[C@H]1O` (relative stereo) [Example I8, (1R*,2R*)-2-[5-(4-Chloro-phenyl)-3-methyl-3H-[1,3,4]thiadiazol-2-ylideneamino]-cyclohexanol] the value was 450 nM; for `COc1ccc(/C=C/c2nn(C)/c(=N/C3CCCCC3)s2)cc1O` [Example I26, 5-[(E)-2-(5-Cyclohexylimino-4-methyl-4,5-dihydro-[1,3,4]thiadiazol-2-yl)-vinyl]-2-methoxy-phenol], 400 nM.

For the molecule `Cn1nc(-c2cccc(S(N)(=O)=O)c2)s/c1=N\C1CCCCC1` [Example I39, 3-(5-Cyclohexylimino-4-methyl-4,5-dihydro-[1,3,4]thiadiazol-2-yl)-benzenesulfonamide], the IC50 is 200 nM. For `Cn1nc(-c2ccc(-c3ccccn3)s2)s/c1=N\C1CCCCC1` [I18,2, Cyclohexyl-[3-methyl-5-(5-pyridin-2-yl-thiophen-2-yl)-3H-[1,3,4]thiadiazol-2-ylidene]-amine] the value was 320 nM. To `COc1ccc(-c2nn(C)/c(=N/C3CCCCC3)s2)cc1Br` [Example I35, [5-(3-Bromo-4-methoxy-phenyl)-3-methyl-3H-[1,3,4]thiadiazol-2-ylidene]-cyclohexyl-amine] belongs 580 nM. For `Cn1nc(-c2ccc(C(=O)NO)cc2)s/c1=N\C1CCCCC1` [I37,2, 4-(5-Cyclohexylimino-4-methyl-4,5-dihydro-[1,3,4]thiadiazol-2-yl)-N-hydroxy-benzamide] the value was 1200 nM.

On to `CN(C)c1ccc(-c2nn(C)/c(=N/C3CCCCC3)s2)cc1` [Example I29, [4-(5-Cyclohexylimino-4-methyl-4,5-dihydro-[1,3,4]thiadiazol-2-yl)-phenyl]-dimethyl-amine], for which the IC50 was determined as 300 nM. For the molecule `Cn1nc(-c2ccc(C(=O)O)cc2)s/c1=N\C1CCCCC1` [I37,1, 4-(5-Cyclohexylimino-4-methyl-4,5-dihydro-[1,3,4]thiadiazol-2-yl)-benzoic acid], the IC50 came out at 550 nM.
